Test results as given in ChEMBL document CHEMBL3880393, “2-(Pyridin-2-ylamino)-pyrido[2,3-d]pyrimidin-7-ones” (2003).

Target: Fibroblast growth factor receptor (Homo sapiens, UniProt P22607+P11362+P22455+P21802)
Test: Inhibition of FGFR (unknown origin) using poly (4:1) glutamate-tyrosine substrate and [gamma32P]ATP incubated for 10 mins by beta plate counter based assay
Format: protein assay

IC50: 2980 nM
Structure (SMILES): O=c1ccc2cnc(Nc3ccccc3)nc2n1C1CCCC1
